# Data: patent publication US6716881B2, “Carbanilides used as pesticides” (Bayer Aktiengesellschaft, priority 1996, dated 2004)
# Legend:
# [1] = test system: R-strain of Pseudocercosporella herpotrichoides; experiment: Pseudocercosporella herpotrichoides test; R-strain (wheat)/protective; assay type: in vivo; conditions: protective, application rate 250 g/ha, evaluation 21 days after inoculation
# Experimental: Pseudocercosporella herpotrichoides Test; R-Strain (Wheat)/Protective
# (§1) To produce a suitable preparation of active compound, 1 part by weight of active compound is mixed with the stated amounts of solvent and emulsifier and the concentrate is diluted with water to the desired concentration.
# To test for protective activity, young plants are sprayed with the preparation of active compound at stated application rates.
# After the spray-coating has dried on, the plants are inoculated at the base of the stem with spores of the R-strain of Pseudocercosporella herotrichoides.
# The plants are placed in a greenhouse at a temperature of approximately 10° C. and a relative atmospheric humidity of approximately 80%.
# Evaluation is carried out 21 days after the inoculation. 0% means an efficacy which corresponds to that of the control, while an efficacy of 100% means that no infection is observed.
# [2] = test system: caterpillars of the owlett moth (Spodoptera frugiperda); experiment: Spodoptera test; assay type: in vivo; conditions: cabbage leaves dipped, active compound concentration 0.1 %
# Experimental: (§2) To produce a suitable preparation of active compound, 1 part by weight of active compound is mixed with the stated amount of solvent and the stated amount of emulsifier, and the concentrate is diluted with water to the desired concentration.
# Cabbage leaves (Brassica oleracea) are treated by being dipped into the preparation of active compound of the desired concentration and are populated with caterpillars of the owlett moth (Spodoptera frugiperda) while the leaves are still moist.
# (§3) After the desired period of time, the kill in % is determined. 100% means that all the caterpillars have been killed; 0% means that none of the caterpillars have been killed.
# [3] = test system: Venturia inaequalis; experiment: Venturia test (apple)/protective (Example K, application rate); assay type: in vivo; conditions: protective, application rate 100 g/ha, evaluation 12 days after inoculation
# Experimental: (§4) Venturia Test (Apple)/Protective
# (§5) To produce a suitable preparation of active compound, 1 part by weight of active compound is mixed with the stated amounts of solvent and emulsifier, and the concentrate is diluted with water to the desired concentration.
# (§6) To test for protective activity, young plants are sprayed with the preparation of active compound at the stated application rate. After the spray-coating has dried on, the plants are inoculated with an aqueous Conidia suspension of the causative organism of apple scab Venturia inaequalis and then remain in an incubation cabin at approximately 20° C. and 100% relative atmospheric humidity for 1 day.
# The plants are subsequently placed in a greenhouse at approximately 21° C. and a relative atmospheric humidity of approximately 90%.
# Evaluation is carried out 12 days after the inoculation. 0% means an efficacy which corresponds to that of the control, while an efficacy of 100% means that no infection is observed.
# [4] = test system: caterpillars of diamond-back moth (Plutella maculipennis); experiment: Plutella test; assay type: in vivo; conditions: cabbage leaves dipped, active compound concentration 0.1 %
# Experimental: as §2
# Cabbage leaves (Brassica oleracea) are treated by being dipped into the preparation of active compound of the desired concentration and are populated with caterpillars of diamond-back moth (Plutella maculipennis) while the leaves are still moist.
# as §3
# [5] = test system: Plasmopara viticola; experiment: Plasmopara test (grape vines)/protective; assay type: in vivo; conditions: protective, application rate 100 g/ha, evaluation 6 days after inoculation
# Experimental: Plasmopara Test (Grape Vines)/Protective
# as §1
# To test for protective activity, young plants are sprayed with the preparation of active compound at the stated application rate. After the spray-coating has dried on, the plants are inoculated with an aqueous spore suspension of Plasmopara viticola and then remain in an incubation cabin at approximately 20° C. and 100% relative atmospheric humidity for 1 day. The plants are subsequently placed in a greenhouse at approximately 21° C. and approximately 90% relative atmospheric humidity for 5 days. The plants are then moistened and placed in an incubation cabin for 1 day.
# Evaluation is carried out 6 days after the inoculation. 0% means an efficacy which corresponds to that of the control, while an efficacy of 100% means that no infection is observed.
# [6] = test system: Coniophora puteana; experiment: Inhibitory test with giant colonies of Basidiomycetes (Coniophora puteana); assay type: cell-based; conditions: after 3 or 7 days at 26° C., vs untreated control; for inhibition at 1 ppm: 1 ppm in agar, read-out: Inhibition of the growth of the hypha in % with Coniophora puteana at an active compound concentration of 1 ppm; for inhibition at 3 ppm: 3 ppm in agar, read-out: Inhibition of the growth of the hypha in % with Coniophora puteana at an active compound concentration of 3 ppm; for inhibition at 6 ppm: 6 ppm in agar, read-out: Inhibition of the growth of the hypha in % with Coniophora puteana at an active compound concentration of 6 ppm
# Experimental: (§7) Inhibitory Test with Giant Colonies of Basidiomycetes.
# (§8) To produce a suitable preparation of active compound, 0.2 parts by weight of active compound are admixed with 99.8 parts by weight of the abovementioned solvent.
# (§9) An agar which has been prepared using malt extract peptone is mixed in the liquid state with the preparation of active compound at the particular desired application rate. After the agar has set, the resulting nutrient medium is incubated at 26° C. with pieces of mycelium which had been punched out of colonies of Coniophora puteana or Coriolus versicolor.
# (§10) Evaluation is carried out after 3 or 7 days' storage at 26° C. by measuring the growth of the hypha and scoring the resulting inhibition in percent in comparison to the untreated control. 0% means an inhibition of growth which corresponds to that of the untreated control, while an inhibition of growth of 100% means that no growth of the hypha is observed.
# [7] = test system: Coriolus versicolor; experiment: Inhibitory test with giant colonies of Basidiomycetes (Coriolus versicolor); assay type: cell-based; conditions: Trametes versicolor, after 3 or 7 days at 26° C., vs untreated control; for inhibition at 1 ppm: 1 ppm in agar, read-out: Inhibition of the growth of the hypha in % with Coriolus versicolor at an active compound concentration of 1 ppm; for inhibition at 3 ppm: 3 ppm in agar, read-out: Inhibition of the growth of the hypha in % with Coriolus versicolor at an active compound concentration of 3 ppm; for inhibition at 6 ppm: 6 ppm in agar, read-out: Inhibition of the growth of the hypha in % with Coriolus versicolor at an active compound concentration of 6 ppm
# Experimental: as §7, §8, §9, §10
# [8] = test system: Podosphaera leucotricha; experiment: Podosphaera test (apple)/protective; assay type: in vivo; conditions: protective, 100 ppm in spray liquor, evaluation 10 days after inoculation
# Experimental: Podosphaera Test (Apple)/Protective
# as §5
# To test for protective activity, young plants are sprayed with the preparation of active compound until dew-moist. After the spray-coating has dried on, the plants are inoculated by dusting with conidia of the causative organism of apple mildew Podosphaera leucotricha.
# (§11) The plants are then placed in a greenhouse at 23° C. and a relative atmospheric humidity of approximately 70%.
# Evaluation is carried out 10 days after the inoculation. 0% means an efficacy which corresponds to that of the untreated control, while an efficacy of 100% means that no infection is observed.
# [9] = test system: Venturia inaequalis; experiment: Venturia test (apple)/protective (Example B, spray liquor concentration); assay type: in vivo; conditions: protective, 100 ppm in spray liquor, evaluation 12 days after inoculation
# Experimental: as §4, §5
# as §6, with “until dew-moist.” for “at the stated application rate.”, “conidia” for “Conidia”, “at” for “at approximately”
# as §11
# Evaluation is carried out 12 days after the inoculation. 0% means an efficacy which corresponds to that of the untreated control, while an efficacy of 100% means that no infection is observed.
# [10] = test system: Pyrenophora teres; experiment: Pyrenophora teres test (barley)/protective; assay type: in vivo; conditions: protective, application rate 125 g/ha, evaluation 7 days after inoculation
# Experimental: Pyrenophora teres Test (Barley)/Protective
# as §5
# To test for protective activity, young plants are sprayed with the preparation of active compound at the stated application rate.
# After the spray-coating has dried on, the plants are sprayed with a conidia suspension of Pyrenophora teres.
# The plants remain in an incubation cabin at 20° C. and 100% relative atmospheric humidity for 48 hours.
# The plants are placed in a greenhouse at a temperature of approximately 20° C. in a relative atmospheric humidity of approximately 80%.
# Evaluation is carried out 7 days after the inoculation. 0% means an efficacy which corresponds to that of the untreated control, while an efficacy of 100% means that no infection is observed.
# [11] = test system: peach aphids (Myzus persicae); experiment: Myzus test; assay type: in vivo; conditions: infested cabbage leaves dipped, active compound concentration 0.1 %
# Experimental: as §2
# Cabbage leaves (Brassica oleracea) which are heavily infested by peach aphids (Myzus persicae) are treated by being dipped into the preparation of active compound of the desired concentration.
# After the desired period of time, the kill in % is determined. 100% means that all the aphids have been killed, 0% means that none of the aphids have been killed.
compound,measurement,setting,value
C/C(=N\OCc1ccccc1NC(=O)c1cn(C)nc1C)c1cccc(C(F)(F)F)c1,Efficacy in %,[1],90%
Cc1ccc(OCc2ccccc2NC(=O)c2cn(C)nc2C)cc1,Degree of kill in % after 7 d,[2],100%
CC1=C(C(=O)Nc2ccccc2Oc2ccccc2)SCCO1,Efficacy in %,[3],100%
CC1=C(C(=O)Nc2ccccc2OCc2cc(Cl)cc(Cl)c2)SCCO1,Degree of kill in % after 7 d,[4],100%
Cc1cccc(COc2ccccc2NC(=O)c2cn(C)nc2C)c1,Degree of kill in % after 7 d,[4],100%
O=C(Nc1ccccc1OCc1ccccc1)C1=C(C(F)(F)F)OCCS1,Degree of kill in % after 7 d,[4],90%
Cc1ccccc1OCc1ccccc1NC(=O)c1ccccc1C(F)(F)F,Degree of kill in % after 7 d,[4],100%
Cc1ccc(SCc2ccccc2NC(=O)c2ccccc2C(F)(F)F)cc1,Efficacy in %,[5],95%
CC1=C(C(=O)Nc2ccccc2CSc2ccccc2)SCCO1,Efficacy in %,[5],90%
"Cn1cc(C(=O)Nc2ccccc2Oc2ncnc(F)c2F)c(C(F)(F)F)n1 [Example 3, 2-(4,5-difluoro-pyrimdyl-6-oxy)-1-methyl-3-trifluoro-methyl-1-pyrazole-4-carboxanilide]",melting point,,197 °C
Cn1cc(C(=O)Nc2ccccc2C=Cc2ccccc2)c(C(F)(F)F)n1 [Example 16],inhibition at 1 ppm,[6],80%
same,inhibition at 3 ppm,[6],100%
same,inhibition at 6 ppm,[6],100%
same,inhibition at 1 ppm,[7],100%
same,inhibition at 3 ppm,[7],100%
same,inhibition at 6 ppm,[7],100%
same,melting point,,117 °C
Cn1cc(C(=O)Nc2ccccc2C=Cc2ccccc2)c(C(F)F)n1 [Example 20],inhibition at 1 ppm,[6],100%
same,inhibition at 3 ppm,[6],100%
same,inhibition at 6 ppm,[6],100%
same,inhibition at 1 ppm,[7],100%
same,inhibition at 3 ppm,[7],100%
same,inhibition at 6 ppm,[7],100%
same,melting point,,122 °C
Cc1ccc(SCc2ccccc2NC(=O)c2cn(C)nc2C(F)F)cc1 [Example 46],inhibition at 1 ppm,[6],80%
same,inhibition at 3 ppm,[6],100%
same,inhibition at 6 ppm,[6],100%
same,inhibition at 1 ppm,[7],100%
same,inhibition at 3 ppm,[7],100%
same,inhibition at 6 ppm,[7],100%
same,melting point,,108 °C
Cc1ccc(OCc2ccccc2NC(=O)c2cn(C)nc2C(F)F)c(C)c1 [Example 50],inhibition at 1 ppm,[6],100%
same,inhibition at 3 ppm,[6],100%
same,inhibition at 6 ppm,[6],100%
same,inhibition at 1 ppm,[7],100%
same,inhibition at 3 ppm,[7],100%
same,inhibition at 6 ppm,[7],100%
same,melting point,,120 °C
O=C(Nc1ccccc1Oc1ccccc1)c1ccccc1C(F)(F)F [drawing 518],Efficacy in % at an active compound concentration in the spray liquor of 100 ppm,[8],100%
Cc1nn(C)cc1C(=O)Nc1ccccc1Oc1ccccc1 [drawing 519],Efficacy in % at an active compound concentration in the spray liquor of 100 ppm,[8],96%
O=C(Nc1ccccc1Oc1ccccc1)c1ccccc1C(F)(F)F [drawing 520],Efficacy in % at an active compound concentration in the spray liquor of 100 ppm,[9],83%
Cc1nn(C)cc1C(=O)Nc1ccccc1Oc1ccccc1 [drawing 521],Efficacy in % at an active compound concentration in the spray liquor of 100 ppm,[9],83%
Cn1cc(C(=O)Nc2ccccc2C=Cc2ccccc2)c(C(F)(F)F)n1 [drawing 523],Efficacy in % at an active compound concentration in the spray liquor of 100 ppm,[9],97%
Cn1cc(C(=O)Nc2ccccc2C=Cc2ccccc2)c(C(F)F)n1 [drawing 524],Efficacy in % at an active compound concentration in the spray liquor of 100 ppm,[9],100%
Cc1ccc(SCc2ccccc2NC(=O)c2cn(C)nc2C(F)F)cc1 [drawing 525],Efficacy in % at an active compound concentration in the spray liquor of 100 ppm,[9],100%
Cc1ccc(OCc2ccccc2NC(=O)c2cn(C)nc2C(F)F)c(C)c1 [drawing 526],Efficacy in % at an active compound concentration in the spray liquor of 100 ppm,[9],95%
Cc1cccc(OCc2ccccc2NC(=O)c2cn(C)nc2C(F)(F)F)c1 [drawing 527],Efficacy in % at an active compound concentration in the spray liquor of 100 ppm,[9],90%
Cn1cc(C(=O)Nc2ccccc2C=Cc2ccccc2)c(C(F)F)n1 [drawing 528],Efficacy in %,[10],83%
Cc1ccc(SCc2ccccc2NC(=O)c2cn(C)nc2C(F)F)cc1 [drawing 529],Efficacy in %,[10],75%
Cc1nc(C(F)(F)F)c(C(=O)Nc2ccccc2CSc2ccccc2)s1 [drawing 531],Degree of kill in % after 7 d,[4],100%
Cc1ccc(OCc2ccccc2NC(=O)c2cn(C)nc2C(F)F)c(C)c1 [drawing 532],Degree of kill in % after 7 d,[4],100%
Cc1nn(C)cc1C(=O)Nc1ccccc1CSc1ccc(Cl)cc1 [drawing 534],Degree of kill in % after 7 d,[4],100%
Cc1cccc(OCc2ccccc2NC(=O)c2cn(C)nc2C(F)(F)F)c1 [drawing 539],Degree of kill in % after 7 d,[11],95%
